This is an account of results in US11578100B2, “Cyclic peptides, cyclic peptide conjugates and methods of use thereof” (Florida Atlantic University Board of Trustees, priority 2018, dated 2023).

For data set [1], the system named is mice. As to the kind of experiment: 55° C. warm water tail-withdrawal test. Type of data set: in vivo, mouse. Particulars: i.n. administration.
Data set [2] has as its system mice. As to the kind of experiment: observation of adverse effects after i.n. administration.
A short description of data set [3]: stability in 100% mouse brain homogenate. The class given is in vitro ADME. Conditions: 37° C., RP-HPLC and MALDI TOF MS. On the procedure:
Peptides Stability Under Physiologically Relevant Conditions and Mode of Action Stability of DADLE-OL in 100% human cerebrospinal fluid and 100% mouse brain homogenate at 37° C. was determined. The disappearance of the intact peptides and formation of proteolytic products was monitored by RP-HPLC and MALDI TOF mass spectrometry. […] Once diffused into the brain, DOR active sequence is released due to proteolytic hydrolysis of DADLE-OL. Fragment 1 was synthesized, and activities of the parent DADLE-OL and fragment 1 were tested in the cAMP inhibition assay (cAMP AlphaScreen™ Assay, Perkin Elmer).

The target of the next data set is T1, δ opioid receptor (DOR) (Homo sapiens, UniProt P41143).
T1 construct: expressed in transfected cells; host or cells: CHO cells
T1 sequence (P41143 whole entry): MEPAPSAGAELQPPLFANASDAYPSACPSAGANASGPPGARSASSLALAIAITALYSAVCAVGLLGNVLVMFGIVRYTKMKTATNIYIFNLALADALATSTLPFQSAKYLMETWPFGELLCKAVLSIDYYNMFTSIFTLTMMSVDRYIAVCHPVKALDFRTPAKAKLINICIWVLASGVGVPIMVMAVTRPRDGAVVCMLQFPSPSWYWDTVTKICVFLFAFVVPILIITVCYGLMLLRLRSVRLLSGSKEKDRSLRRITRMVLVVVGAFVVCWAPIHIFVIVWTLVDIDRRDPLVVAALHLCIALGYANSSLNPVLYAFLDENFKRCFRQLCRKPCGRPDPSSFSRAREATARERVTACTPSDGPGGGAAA
Put plainly: opioid receptor protein binding radioassay, DOR.

The target in another data set is T2, μ opioid receptor (MOR) (Homo sapiens, UniProt P35372).
T2 construct: expressed in transfected cells; host or cells: CHO cells
T2 sequence (P35372 whole entry): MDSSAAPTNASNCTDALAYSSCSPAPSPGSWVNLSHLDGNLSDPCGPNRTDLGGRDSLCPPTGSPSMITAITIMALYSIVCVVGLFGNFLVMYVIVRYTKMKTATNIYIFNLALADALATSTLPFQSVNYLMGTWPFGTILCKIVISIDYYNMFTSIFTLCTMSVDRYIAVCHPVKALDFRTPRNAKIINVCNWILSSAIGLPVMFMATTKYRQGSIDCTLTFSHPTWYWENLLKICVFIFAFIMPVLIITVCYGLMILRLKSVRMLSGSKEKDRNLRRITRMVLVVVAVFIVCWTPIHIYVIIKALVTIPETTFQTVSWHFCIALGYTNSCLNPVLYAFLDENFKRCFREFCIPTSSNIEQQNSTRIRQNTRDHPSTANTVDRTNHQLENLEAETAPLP
Put plainly: opioid receptor protein binding radioassay, MOR.

The next data set deals with T3, κ opioid receptor (KOR) (Homo sapiens, UniProt P41145).
T3 construct: expressed in transfected cells; host or cells: CHO cells
T3 sequence (P41145 whole entry): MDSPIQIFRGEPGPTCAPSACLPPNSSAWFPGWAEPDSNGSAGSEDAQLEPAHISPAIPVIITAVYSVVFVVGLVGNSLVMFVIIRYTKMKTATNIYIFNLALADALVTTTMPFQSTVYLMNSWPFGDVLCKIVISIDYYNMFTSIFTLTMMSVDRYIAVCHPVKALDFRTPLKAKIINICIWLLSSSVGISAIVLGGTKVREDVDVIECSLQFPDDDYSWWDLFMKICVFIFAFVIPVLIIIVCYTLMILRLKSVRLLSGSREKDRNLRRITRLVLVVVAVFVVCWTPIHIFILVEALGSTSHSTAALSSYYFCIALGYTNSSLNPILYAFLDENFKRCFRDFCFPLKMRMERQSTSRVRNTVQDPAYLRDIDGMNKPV
As to the kind of experiment: opioid receptor protein binding radioassay, KOR.

Data set [4] is described as follows: peptide level in mouse brain after i.n. or i.p. administration (LC-MS/MS).
Data set [5] has as its system mice. Put plainly: rotarod test of motor coordination. Particulars: peptides i.n.; U50,488 i.p.
The subject of data set [6] is mice. As to the kind of experiment: conditioned place preference / aversion. Conditions: mouse, in vivo.
For data set [7] the following is noted: 30 min after intranasal delivery. The text has this:
Anatomical and physiological studies identified the midbrain periaqueductal gray (PAG) and its descending projections to the rostral ventromedial medulla (RVM) and spinal cord dorsal horn, as a primary anatomical pathway mediating opioid-based analgesia.

A further data set addresses T4, DOR (Mus musculus, UniProt P32300).
T4 construct: from tissue; host or cells: living mouse (CNS); SNC-80 i.c.v. after i.n. TIPP-OL
As to the kind of experiment: antagonism of i.c.v. SNC-80 after i.n. pretreatment. Type of data set: in vivo. Particulars: SNC-80 i.c.v.

Where a SMILES comes first, the peptide text is derived from it. Bridges are numbered along the chain shown (N, C = ends). Where no end group is shown, it is not given here. [ ]: non-standard residue; d: D form. Trp(5-OH) = N[C@@H](Cc1c[nH]c2ccc(O)cc12)C(=O)O; Tic = O=C(O)[C@@H]1Cc2ccccc2CN1

T4 sequence (P32300 whole entry): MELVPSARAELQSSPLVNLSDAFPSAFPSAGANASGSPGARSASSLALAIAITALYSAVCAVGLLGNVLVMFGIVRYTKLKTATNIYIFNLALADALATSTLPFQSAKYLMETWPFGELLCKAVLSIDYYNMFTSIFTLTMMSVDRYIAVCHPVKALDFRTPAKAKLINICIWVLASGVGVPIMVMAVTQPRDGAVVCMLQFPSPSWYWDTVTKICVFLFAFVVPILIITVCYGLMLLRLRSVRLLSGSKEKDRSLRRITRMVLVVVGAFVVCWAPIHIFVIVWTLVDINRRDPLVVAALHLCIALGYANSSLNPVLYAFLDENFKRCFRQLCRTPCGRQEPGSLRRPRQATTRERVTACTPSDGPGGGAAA

Consider `CC(C)C[C@@H](NC(=O)[C@H](Cc1ccccc1)NC(=O)CNC(=O)[C@@H](C)NC(=O)[C@@H](N)Cc1ccc(O)cc1)C(=O)O` [DADLE, [D-Ala^2, D-Leu^5] enkephalin, reference compound], for which the “antinociception in tail-withdrawal test” value with mice [1] is recorded as “did not themselves produce antinociception”.

Consider `CC(C)C[C@@H]1NC(=O)[C@H](C(C)C)NC(=O)CNC(=O)[C@H](CC(N)=O)NC(=O)[C@@H]2CCCN2C(=O)[C@H](Cc2ccc(O)cc2)NC(=O)[C@H](CCCNC(=N)N)NC(=O)[C@H](Cc2ccccc2)NC(=O)[C@@H](NC(=O)[C@H](CCCCN)NC(=O)[C@@H]2CCCN2C(=O)[C@H](CO)NC(=O)[C@H](C)NC(=O)[C@@H](N)Cc2ccc(O)cc2)CSSC[C@@H](C(=O)N[C@H](C(N)=O)[C@@H](C)O)NC(=O)[C@H](C)NC1=O` [OL, Y^1A^2S^3P^4K^5-cyclo[C^6F^7R^8Y^9P^10N^11G^12V^13L^14A^15C^16]T^17, reference compound] (H-YASPKCFRYPNGVLACT-NH2; disulfide 6-16; N-terminus and C-terminus assumed), for which, in the data set on mice [2], the adverse effects entry was “no adverse effects were observed”. In addition, the “stability in 100% mouse brain homogenate” value in data set [3] is “proteolytic cleavage of the N-terminal Tyr^1 and Ala^2”. The “Kd opioid receptor δ” value on δ opioid receptor (DOR) is given as “n.o”. In addition, the “Kd opioid receptor μ” value on μ opioid receptor (MOR) was “n.o”. In addition, at κ opioid receptor (KOR), the “Kd opioid receptor K” value is reported as “n.o”. In data set [4] (30 minutes after i.n. (30 μg, 6 μL/nostril)), the “detection in mouse brain after i.n. administration” value is recorded as “can be detected in the mouse brain”. Besides, in data set [4] (after i.n. administration), the “time to elimination from the brain” value is “about 240 minutes”.

`CC(C)C[C@@H]1NC(=O)[C@H](CCCCN)NC(=O)[C@@H]2CCCN2C(=O)[C@H](Cc2c[nH]c3ccccc23)NC(=O)[C@H](Cc2ccccc2)NC(=O)CNC(=O)[C@H](CCCNC(=N)N)NC(=O)[C@H](Cc2ccccc2)NC(=O)[C@@H](NC(=O)[C@H](CCCCN)NC(=O)[C@@H]2CCCN2C(=O)[C@H](CO)NC(=O)[C@H](C)NC(=O)[C@@H](N)Cc2ccc(O)cc2)CSSC[C@@H](C(=O)N[C@H](C(N)=O)[C@@H](C)O)NC(=O)[C@H](C)NC1=O` [OLKOR-L1, Y^1A^2S^3P^4K^5-cyclo[C^6F^7R^8G^9F^10W^11P^12K^13L^14A^15C^16]T^17] (H-YASPKCFRGFWPKLACT-NH2; disulfide 6-16): the adverse effects result in the data set on mice [2] is “no other adverse effects were observed”. Further, in the data set with mice [5], the “motor coordination in rotarod test” value is given as “no impairment in motor coordination in mice was observed”.

As for `CC(C)C[C@@H]1NC(=O)[C@H](CCCCN)NC(=O)[C@@H]2CCCN2C(=O)[C@H](Cc2c[nH]c3ccccc23)NC(=O)[C@H](Cc2ccccc2)NC(=O)CNC(=O)[C@H](CCCNC(=N)N)NC(=O)[C@H](Cc2ccccc2)NC(=O)[C@@H](NC(=O)[C@H](CCCCN)NC(=O)[C@@H]2CCCN2C(=O)[C@H](CO)NC(=O)[C@H](C)NC(=O)[C@@H](N)Cc2c[nH]c3ccc(O)cc23)CSSC[C@@H](C(=O)N[C@H](C(N)=O)[C@@H](C)O)NC(=O)[C@H](C)NC1=O` [OLKOR-L1-5HTrp, 5-HTrp^1-A^2S^3P^4K^5-cyclo[C^6F^7R^8G^9F^10W^11P^12K^13L^14A^15C^16]T^17] (H-[Trp(5-OH)]ASPKCFRGFWPKLACT-NH2; disulfide 6-16), in the data set with mice [6], the “conditioned place aversion (CPA)” value is given as “produced CPA” and the “conditioned place preference (reward)” value is listed as “do not produce reward”. In data set [7], the “5-HTrp accumulation in the midbrain” value is given as “significant increase in 5-HTrp accumulation in the midbrain”.

In the case of `CC(C)C[C@@H]1NC(=O)[C@H](CC(N)=O)NC(=O)[C@H](C(C)C)NC(=O)[C@@H]2CCCN2C(=O)[C@H](Cc2ccccc2)NC(=O)[C@H](Cc2c[nH]cn2)NC(=O)[C@H](CCCNC(=N)N)NC(=O)[C@H](Cc2ccccc2)NC(=O)[C@@H](NC(=O)[C@H](CCCCN)NC(=O)[C@@H]2CCCN2C(=O)[C@H](CO)NC(=O)[C@H](C)NC(=O)[C@@H](N)Cc2ccc(O)cc2)CSSC[C@@H](C(=O)N[C@H](C(N)=O)[C@@H](C)O)NC(=O)[C@H](C)NC1=O` [OLMOR-L1, Y^1A^2S^3P^4K^5-cyclo[C^6F^7R^8H^9F^10P^11V^12N^13L^14A^15C^16]T^17] (H-YASPKCFRHFPVNLACT-NH2; disulfide 6-16), in the data set on mice [6], the “conditioned place aversion (CPA)” value is “did not induce significant conditioned place preference or aversion” and the “conditioned place preference (reward)” value was “did not induce significant conditioned place preference or aversion”. In addition, in the data set with mice [5], the “motor coordination in rotarod test” value was “did not affect motor coordination and balance”.

Take “Y^1A^2S^3P^4K^5-cyclo[C^6F^7R^8Y^9Tic^10F^11F^12V^13L^14A^15C^16]T^17 (YASPKCFRY[Tic]FFVLACT; disulfide 6-16 (inferred)) [TIPP-OL]”: the “antagonism of the effect of SNC-80” value with DOR is listed as “fully antagonizes the effect of a potent DOR agonist SNC-80”.

“Y^1P^2W^3F^4K^5-cyclo[C^6F^7R^8Y^9Tic^10F^11F^12V^13L^14A^15C^16]T^17 (YPWFKCFRY[Tic]FFVLACT; disulfide 6-16 (inferred)) [TIPP-EM1-OL]”: the “antinociception in tail-withdrawal test” value in the data set with mice [1] is listed as “exhibits antinociceptive effects”.
